From patent US5318984A, “Imidazoles for the treatment of atherosclerosis” (priority 1992, dated 1994)

Target: T1, Acyl-CoA: Cholesterol Acyltransferase (ACAT) (Rattus norvegicus, UniProt Q7TQM4)
T1 construct: Microsomes were obtained by differential centrifugation; from tissue; host or cells: liver microsomes of male Sprague Dawley rats
T1 sequence (Q7TQM4 1-524): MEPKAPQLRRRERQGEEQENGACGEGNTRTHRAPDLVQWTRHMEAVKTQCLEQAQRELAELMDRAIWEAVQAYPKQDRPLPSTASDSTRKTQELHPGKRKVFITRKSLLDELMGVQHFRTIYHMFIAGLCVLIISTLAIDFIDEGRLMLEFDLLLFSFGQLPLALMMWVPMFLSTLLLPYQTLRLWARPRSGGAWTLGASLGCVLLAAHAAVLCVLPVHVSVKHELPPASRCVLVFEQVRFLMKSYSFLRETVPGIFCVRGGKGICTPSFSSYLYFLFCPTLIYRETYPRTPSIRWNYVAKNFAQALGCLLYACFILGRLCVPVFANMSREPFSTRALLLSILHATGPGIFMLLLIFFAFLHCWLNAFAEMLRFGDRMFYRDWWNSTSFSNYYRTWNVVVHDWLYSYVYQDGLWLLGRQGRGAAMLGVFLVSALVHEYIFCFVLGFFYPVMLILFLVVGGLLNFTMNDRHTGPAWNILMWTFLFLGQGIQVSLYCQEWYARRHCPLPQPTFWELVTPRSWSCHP
Experiment: Inhibition of Acyl-CoA: Cholesterol Acyltransferase (ACAT) in Hepatic Microsomes
Assay type: biochemical, Sprague Dawley rats
Details: 14C-oleoyl-CoA, pH 7.4, 37° C., read-out: In Vitro ACAT IC50
Procedure: A. Assay of the Inhibition of Acyl-CoA: Cholesterol Acyltransferase (ACAT) in Hepatic Microsomes
The ability of the compounds to inhibit ACAT, the enzyme responsible for the intracellular synthesis of cholesteryl esters, was tested as follows. Male Sprague Dawley rats weighing 150-300 g, were fed rat chow ad libitum. The animals were fasted for twenty-four hours prior to being sacrificed by decapitation. The livers were perfused in situ with 50 ml of cold 0.25M sucrose, excised, and homogenized in three volumes of 0.1M phosphate buffer, pH 7.4, that contained 0.5 mM EDTA (ethylenediaminetetraacetic acid), 1.0 mM glutathione, 0.25M sucrose and […]. Microsomes were obtained by differential centrifugation; the supernatant from an initial spin at 15,000×g for 15 minutes was centrifuged at 105,000×g for 1 hour to pellet the microsomes. The microsomes were suspended in homogenization buffer, reisolated by centrifugation, and stored at -70° C. Microsomes were used within one month of preparation.
The control assay in a final volume of 200 μl consisted of 200 μg of microsomal protein, 75 μM ^14 C-oleoyl-CoA (10,000 dpm/nmol) in 0.1M phosphate, pH 7.4, that contained 1 mM glutathione. Compounds were added in 5 μl of DMSO (dimethyl sulfoxide) and additional controls were run with DMSO only. All components, except the oleoyl-CoA, were preincubated for 15 min. at 37° C. prior to the initiation of the reaction by the addition of oleoyl-CoA. The assay was terminated after 10 min by the addition of 4 ml of chloroform:methanol (2:1, v/v). 20,000 dpm of 3H-cholesteryl oleate and 10 μg of unlabeled cholesteryl oleate and oleic acid were added as an internal standard and carriers, respectively. After allowing 10 min. for lipid extraction, the samples were centrifuged at 1,000×g for 10 min. to separate the solvent layers. The chloroform layer containing the neutral lipids was spotted onto a Baker SI250-Pa silica gel TLC plate and the plate developed using a hexane: diethyl ether: acetic acid (170:30:1 v/v/v) mobile phase. The lipids were visualized by their interaction with iodine vapor and the cholesteryl ester spot was scraped into a scintillation vial and counted.

Row | SMILES | IC50 [nM]
1 | CCCCCCCN(CCCCCCCCSc1nc(-c2ccccc2)c(-c2ccccc2)[nH]1)C(=O)Nc1ccc(F)cc1F [Example 3, N'-(2,4-difluorophenyl)-N-[8-(4,5-diphenyl-1H-imidazol-2-ylthio)octyl]-N-heptylurea] | 8
2 | CCCCCCCN(CCCCCSc1nc(-c2ccccc2)c(-c2ccccc2)n1C)C(=O)Nc1ccc(F)cc1F [Example 6, N'-(2,4-difluorophenyl)-N-heptyl-N-[5-(1-methyl-4,5-diphenyl-1H-imidazol-2-ylthio]pentyl]urea] | 3600
3 | CCCCCCCN(CCCCCSc1nc(-c2ccccc2)c(-c2ccccc2)[nH]1)C(=O)NCCC [Example 8, N-[5-(4,5-diphenyl-1H-imidazol-2-ylthio)pentyl]-N-heptyl-N'-propylurea] | 10
4 | CCCCCCCN(CCCCCSc1nc(-c2ccccc2)c(-c2ccccc2)[nH]1)C(=O)NC1CCCCC1 [Example 94, N'-cyclohexyl-N-[5-(4,5-diphenyl-1H-imidazol-2-ylthio)pentyl]-N-heptylurea] | 10
5 | CCCCCCCN(CCCCCSc1nc(-c2ccccc2)c(-c2ccccc2)[nH]1)C(=O)NC(C)C [Example 105, N-[5-(4,5-diphenyl-1H-imidazol-2-ylthio)pentyl]-N-heptyl-N'-(1-methylethyl)urea] | 20
6 | CCCCCCCN(CCSc1nc(-c2ccccc2)c(-c2ccccc2)[nH]1)C(=O)Nc1ccc(F)cc1F [Example 189, N'-(2,4-difluorophenyl)-N-[2-(4,5-diphenyl-1H-imidazol-2-ylthio)ethyl]-N-heptylurea] | 70
7 | CCCN(CCCCCSc1nc(-c2ccccc2)c(-c2ccccc2)[nH]1)C(=O)Nc1ccc(F)cc1F [Example 190] | 30
8 | CCCCCCCN(CCCCCSc1nc(-c2ccccc2)c(-c2ccccc2)[nH]1)C(=O)Nc1ccc(-c2ccccc2)cc1 [Example 192, N'-[(1,1'-biphenyl)-4-yl]-N-[5-(4,5-diphenyl-b 1H-imidazol-2-ylthio)pentyl]-N-heptylurea] | 70
9 | CCCCCCCCNC(=O)N(CCCCCSc1nc(-c2ccccc2)c(-c2ccccc2)[nH]1)c1ccc(F)cc1F [Example 206, N-(2,4-difluorophenyl)-N-[5-(4,5-diphenyl-1H-imidazol-2-ylthio)pentyl]-N'-octylurea] | 40
10 | CCCCCCCCNC(=O)N(CCCCCSc1nc(-c2ccccc2)c(-c2ccccc2)[nH]1)c1c(F)cc(F)cc1F [Example 208] | 20
11 | CCCCCCCN(CCCCCSc1nc(-c2ccccc2)c(-c2ccccc2)[nH]1)C(=O)Oc1ccccc1 [Example 402, Phenyl [5-(4,5-diphenyl-1H-imidazol-2-ylthio)pentyl]heptylcarbamate] | 20

More lines, now with the values ahead:

Row | IC50 [nM] | SMILES
12 | 80 | CC(C)NC(=O)N(CCCCCSc1nc(-c2ccccc2)c(-c2ccccc2)[nH]1)c1ccccc1 [Example 261]
13 | 40 | CC(C)NC(=O)N(CCCCCSc1nc(-c2ccccc2)c(-c2ccccc2)[nH]1)c1ccc(F)cc1F [Example 263]
14 | 230 | CCCCCCCN(CCCCCSc1nc(-c2ccccc2)c(-c2ccccc2)[nH]1)C(=O)Nc1c(C(C)C)cccc1C(C)C [Example 266]
15 | 58 | CCCCCCCN(CCCCCSc1nc(-c2ccccc2)c(-c2ccccc2)[nH]1)C(=S)Nc1ccc(F)cc1F [Example 276, N'-(2,4-difluorophenyl]-N-[5-(4,5-diphenyl-1H-imidazol-2-ylthio)pentyl]-N-heptylthiourea]
16 | 8 | CCCCCCCN(CCCCC[S+]([O-])c1nc(-c2ccccc2)c(-c2ccccc2)[nH]1)C(=O)Nc1ccc(F)cc1F (stereo not drawn) [Example 278, N'-(2,4-difluorophenyl)-N-[5-(4,5-diphenyl-1H-imidazol-2-ylsulfinyl)pentyl]-N-heptylurea]
17 | 16 | CCCCCCCN(CCCCCS(=O)(=O)c1nc(-c2ccccc2)c(-c2ccccc2)[nH]1)C(=O)Nc1ccc(F)cc1F [Example 281, N'-(2,4-difluorophenyl)-N-[5-[(4,5-diphenyl-1H-imidazol-2-yl)sulfonyl]pentyl]-N-heptylurea]
18 | 30 | CCCCCCCN(CCCCCSc1nc(-c2ccccc2)c(-c2ccccc2)[nH]1)C(=S)Nc1c(F)cc(F)cc1F [Example 298, N-[5-(4,5-diphenyl-1H-imidazol-2-ylthio)pentyl]N-heptyl-N'-(2,4,6-trifluorophenyl)thiourea]
19 | 3500 | CCCCCCCN(CCCCCNc1nc(-c2ccccc2)c(-c2ccccc2)[nH]1)C(=O)Nc1ccc(F)cc1F [Example 338, N' -(2,4-difluorophenyl)-N-[5-(4,5-diphenyl-1H-imidazol-2-ylamino)pentyl]-N-heptylurea]
20 | 280 | CCCCCCCN(CCCCCCc1nc(-c2ccccc2)c(-c2ccccc2)[nH]1)C(=O)Nc1ccc(F)cc1F [Example 339, N'-(2,4-difluorophenyl)-N-[6-(4,5-diphenyl-1H-imidazol-2-yl)hexyl]-N-heptylurea]
21 | 25 | CCCCCCCN(CCCCCSc1nc(-c2ccccc2)c(-c2ccccc2)[nH]1)C(=O)Cc1ccc(F)cc1F [Example 340, 2,4-difluoro-N-[(5-(4,5-diphenyl-1H-imidazol-2-ylthio)pentyl)]-N-heptylbenzeneacetamide]
22 | 160 | CCCCCCCN(CCCCCSc1nc(-c2ccccc2)c(-c2ccccc2)[nH]1)C(=O)Cc1ccc(-c2ccccc2)cc1 [Example 343, N-[5-(4,5-diphenyl-1H-imidazol-2-ylthio)pentyl]-N-heptyl[1,1'-biphenyl]-4-acetamide]
23 | 30 | CCCCCCCN(CCCCCSc1nc(-c2ccccc2)c(-c2ccccc2)[nH]1)C(=O)CC1CCCCC1 [Example 344]
24 | 60 | CCCCCCCN(CCCCCSc1nc(-c2ccccc2)c(-c2ccccc2)[nH]1)C(=O)c1ccc(F)cc1F [Example 345]
25 | 50 | CCCCCCCN(CCCCCSc1nc(-c2ccccc2)c(-c2ccccc2)[nH]1)C(=O)c1ccccc1 [Example 346]
26 | 50 | CCCCCCCN(CCCCCSc1nc(-c2ccccc2)c(-c2ccccc2)[nH]1)C(=O)OC1CCCCC1 [Example 401, cyclohexyl [5-(4,5-diphenyl-1H-imidazol-2-ylthio)pentyl]heptylcarbamate]
27 | 3160 | CCCCCCCN(CCCCCSc1nc(-c2ccccc2)c(-c2ccccc2)[nH]1)C(=N)Nc1ccccc1 [Example 499, N-[5-(4,5-diphenyl-1H-imidazol-2-ylthio)pentyl]-N-heptyl-N'-phenylguanidin]
